Data reported in PubChem BioAssay (NCI).
Where “and” joins values, the source holds several entries; their conditions need not be identical. Equal entries are not always repeated.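 Five compound concentrations were applied to cells in 96-well plates for 48 hours; endpoints were derived by simple linear interpolation of the resulting dose-response curve. GI50 = concentration required for 50% inhibition of growth. TGI is the concentration that stops growth completely.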

Assays:
Test in all cases: NCI tumour cell line growth inhibition, 48 h
[1] = system: M14 melanoma
[2] = system: COLO 205 colon
[3] = system: NCI-H522 lung
[4] = system: MDA-N
[5] = system: SNB-75 CNS
[6] = system: SF-295 CNS
[7] = system: PC-3 prostate
[8] = system: CAKI-1 renal
[9] = system: SF-539 CNS
[10] = system: 786-0 renal
[11] = system: OVCAR-3 ovarian
[12] = system: HCT-116 colon
[13] = system: RPMI-8226 leukemia
[14] = system: A549 NSCLC
[15] = system: HOP-62 NSCLC
[16] = system: TK-10 renal
[17] = system: SN12C renal
[18] = system: UO-31 renal
[19] = system: SW-620 colon
[20] = system: NCI-H460 lung
[21] = system: EKVX NSCLC
[22] = system: KM12 colon
[23] = system: MALME-3M melanoma
[24] = system: SR leukemia
[25] = system: SK-MEL-2 melanoma
[26] = system: HL-60(TB) leukemia
[27] = system: SK-OV-3 ovarian
[28] = system: NCI-H23 lung
[29] = system: UACC-257 melanoma
[30] = system: OVCAR-5 ovarian
[31] = system: IGROV1 ovarian
[32] = system: MOLT-4 leukemia
[33] = system: CCRF-CEM leukemia
[34] = system: U251 CNS
[35] = system: K-562 leukemia
[36] = system: OVCAR-4 ovarian
[37] = system: MCF7 breast
[38] = system: SK-MEL-5 melanoma
[39] = system: UACC-62 melanoma
[40] = system: MDA-MB-231 breast
[41] = system: HCT-15 colon
[42] = system: LOX IMVI melanoma
[43] = system: ACHN renal
[44] = system: NCI/ADR-RES ovarian
[45] = system: HS 578T breast
[46] = system: BT-549 breast
[47] = system: NCI-H226 lung
[48] = system: SNB-19 CNS
[49] = system: MDA-MB-435
[50] = system: OVCAR-8 ovarian
[51] = system: DU-145 prostate
[52] = system: HT29 colon
[53] = system: SK-MEL-28 melanoma
[54] = system: SF-268 CNS
[55] = system: A498 renal
[56] = system: HCC-2998 colon
[57] = system: HOP-92 NSCLC
[58] = system: RXF 393 renal

## CN(c1ccccc1Cl)S(=O)(=O)c1ccccc1
[1]
  TGI: > 100 µM
[2]
  TGI: > 100 µM
[3]
  TGI: > 100 µM
[4]
  TGI: > 100 µM
[5]
  TGI: > 100 µM
[6]
  TGI: > 100 µM
[7]
  TGI: > 100 µM
[8]
  TGI: > 100 µM
[9]
  TGI: > 100 µM
[10]
  TGI: > 100 µM
[11]
  TGI: > 100 µM
[12]
  TGI: > 100 µM
[13]
  TGI: > 100 µM
[14]
  TGI: > 100 µM
[15]
  TGI: > 100 µM
[16]
  TGI: > 100 µM
[17]
  TGI: > 100 µM
[18]
  TGI: > 100 µM
[19]
  TGI: > 100 µM
[20]
  TGI: > 100 µM
[21]
  TGI: > 100 µM
[22]
  TGI: > 100 µM
[23]
  TGI: > 100 µM
[24]
  TGI: > 100 µM
[25]
  TGI: > 100 µM
[26]
  TGI: > 100 µM
[27]
  TGI: > 100 µM
[28]
  TGI: > 100 µM
[29]
  TGI: > 100 µM
[30]
  TGI: > 100 µM
[31]
  TGI: > 100 µM
[32]
  TGI: > 100 µM
[33]
  TGI: > 100 µM
[34]
  TGI: > 100 µM
[35]
  TGI: > 100 µM
[36]
  TGI: > 100 µM
[37]
  TGI: > 100 µM
[38]
  TGI: > 100 µM
[39]
  TGI: > 100 µM
[40]
  TGI: > 100 µM
[41]
  TGI: > 100 µM
[42]
  TGI: > 100 µM
[43]
  TGI: > 100 µM
[44]
  TGI: > 100 µM
[45]
  TGI: > 100 µM
[46]
  TGI: > 100 µM
[47]
  TGI: > 100 µM
[48]
  TGI: > 100 µM
[49]
  TGI: > 100 µM
[50]
  TGI: > 100 µM
[51]
  TGI: > 100 µM
[52]
  TGI: > 100 µM
[53]
  TGI: > 100 µM
[54]
  TGI: > 100 µM

## COc1ccc(-c2c(C(C)=O)c(-c3ccccc3)n(C3OC(COC(C)=O)C(OC(C)=O)C(OC(C)=O)C3OC(C)=O)c(=S)c2C#N)cc1O (stereo not given)
[1]
  GI50: 36.2 µM and 93 µM
  TGI: > 100 µM
[2]
  GI50: 21 µM and 47.7 µM
  TGI: 57.5 µM and > 100 µM
[3]
  TGI: 35.9 µM and 47.7 µM
[4]
  TGI: 81.5 µM and > 100 µM
[6]
  TGI: > 100 µM
[7]
  TGI: > 100 µM
[8]
  TGI: > 100 µM
[10]
  TGI: > 100 µM
[55]
  TGI: > 100 µM
[11]
  TGI: 41 µM and > 100 µM
[12]
  TGI: > 100 µM
[13]
  GI50: 11.3 µM and 47.5 µM
  TGI: 61.3 µM and > 100 µM
[14]
  TGI: > 100 µM
[56]
  TGI: 42 µM and 80.5 µM
[15]
  GI50: 20.1 µM and > 100 µM
  TGI: 45.6 µM and > 100 µM
[17]
  TGI: > 100 µM
[18]
  TGI: > 100 µM
[19]
  TGI: > 100 µM
[20]
  GI50: 10.8 µM and 43.5 µM
  TGI: 37.4 µM and > 100 µM
[57]
  GI50: 43.9 µM and 17.3 µM
  TGI: 82.5 µM and > 100 µM
[21]
  TGI: 79.3 µM and > 100 µM
[22]
  TGI: 56.6 µM and > 100 µM
[23]
  TGI: 40.5 µM and 55.9 µM
[24]
  TGI: > 100 µM
[26]
  TGI: > 100 µM
[28]
  TGI: > 100 µM
[29]
  TGI: > 100 µM
[30]
  TGI: > 100 µM
[31]
  GI50: 12.4 µM and 38.2 µM
  TGI: 35.6 µM and > 100 µM
[32]
  GI50: 18.2 µM and 52.8 µM
  TGI: > 100 µM
[33]
  GI50: 23.6 µM and 70.2 µM
  TGI: > 100 µM
[34]
  TGI: > 100 µM
[35]
  TGI: > 100 µM
[36]
  TGI: 98.8 µM and > 100 µM
[37]
  TGI: > 100 µM
[38]
  TGI: > 100 µM
[39]
  TGI: 53.6 µM and > 100 µM
[41]
  TGI: > 100 µM
[42]
  TGI: > 100 µM
[43]
  TGI: > 100 µM
[44]
  TGI: > 100 µM
[58]
  TGI: > 100 µM
[45]
  TGI: > 100 µM
[46]
  TGI: 72.2 µM
[48]
  TGI: > 100 µM
[49]
  TGI: > 100 µM
[51]
  TGI: 94.3 µM and > 100 µM
[52]
  TGI: > 100 µM
[53]
  GI50: 27.2 µM and 65.9 µM
  TGI: > 100 µM
[54]
  GI50: 32.6 µM and 76.2 µM
  TGI: > 100 µM
